This assay concerns HuH-7 replicon cells 5–15 and 9–13 (HCV replication). Kind of assay: Inhibition of viral replication in HuH-7 replicon cells (HCV RNA / GAPDH RNA by multiplex RT-PCR). The note with it: Hepatitis C virus, 72 h; inhibiting 50% of replication; HuH-7 replicon cells, 3 days; read-out: IC50. Format: cell-based. The protocol:
Compounds were evaluated for inhibition of viral replication according to published procedures (Bartenschlager, R., et. al., Science, 1999, 285, 110) with modifications as follows.
HuH-7 replicon cells 5–15 and 9–13 were cultured in Dulbecco's minimal essential medium (DMEM) containing high glucose and supplemented with 10% fetal bovine serum (FBS), L-glutamine (2 mM), non-essential amino acids (1×), Penicillin (100 IU/mL)/Streptomycin (100 μg/mL) and G418 (Geneticin, 750 μg/mL). Unless otherwise specified, all media components were obtained from Invitrogen. Replicon cell line stocks were maintained as sub-confluent monolayers by passaging every Monday (1:6 split) and Thursday (1:10 split) and incubated at 37° C. with 5% CO2. Tissue culture plates (96-well white clear bottom plates, Corning #3610) were seeded at 7×10^3 cells/well and incubated for 24 hours prior to addition of the compounds.
Compounds in dry powder form were diluted in DMSO (30 mM stock). Serial dilutions of each Compound in DMSO (10 mM–0.1 mM) were performed in a 96-well polypropylene plate using a microtiter format. Culture media (200 μl) was added to the corresponding wells of a sterile 96-well round bottom plate. Diluted compound (2 μl) was added to the corresponding wells of the medial plate (final compound concentrations: 100 μM–1 μM). Culture media was removed from the corresponding wells of the 96-well plate containing the replicon cells and 150 μl diluted compound added. Media containing 1% DMSO and a serially diluted IFN were included on each plate. The cultures were incubated at 37° C. with 5% CO2 for 3 days. Cultures were observed visually for cytotoxicity or compound precipitation prior to RNA extraction described below.
Total cellular RNA was extracted by spin column technology (RNeasy 96, Qiagen) using the vacuum methodology according to the manufacturer's protocol. In brief, culture media was removed and 100 μl RLT lysis buffer containing 0.14M β-mercaptoethanol (β-ME) was added to each well. The plate was kept flat on the laboratory bench and shaken vigorously to lyse the cells. An equal volume of 70% ETOH was mixed with the lysate and added to the corresponding columns of the RNeasy 96-well plate. Vacuum was applied to draw the lysate through the filters. After ventilating the plate, buffer RW1 (1 mL) was drawn through each column. The waste tray was emptied and the filters washed twice with buffer RPE (1 mL/wash). After ventilating the tray, the RNeasy plate was removed and the bottom of the plate struck several times on a stack of paper towels to remove excess wash buffer. The waste tray was removed from the vacuum apparatus and the RNeasy 96-well plate dried by applying vacuum for 10 minutes. Total cellular RNA was eluted from the columns with two washes of 60 μl RNase-free water.
Relative quantitative multiplex RT-PCR was performed using TaqMan (TM) EZ RT Core Reagent kit (Perkin Elmer) according to the manufacturer's protocol (PE Applied Biosystems User Bulletin #2). Primer 061 (NT 61–82) and 139 (NT 139–158) amplifying a short region in the 5′ untranslated region of the HCV genome were utilized at 300 nM final concentrations. Probe #3 (NT 97–119) labeled with FAM reporter dye was utilized at 200 nM final concentration. Pre-developed human GAPDH primers and probe labeled with VIC reporter dye were obtained from PE Applied Biosystems (# 4310884E) and used according to the manufacturer's protocol. TM RT-PCR master mix was prepared containing the above primers/probe for both target RNA. Total cellular RNA (2 μl) was added to the reaction tubes of a 96-well optical plate that corresponded to the wells of the replicon culture plate. The final volume of each reaction was 50 μl. A standard curve was prepared from ten-fold serial dilutions of total cellular RNA extracated from 10^6 replicon cells and eluted in 30 μl RNase-free water. […]

In the case of `CSc1ccc(CC(=O)N/N=C/c2ccccc2OS(=O)(=O)c2ccc(C(F)(F)F)cc2)cc1` [Compound 26, 2-[(E)-(2-{2-[4-(methylthio)phenyl]acetyl}hydrazono)methyl]-phenyl 4-(trifluoromethyl)benzenesulfonate], the IC50 (usually the concentration that gives 50% inhibition) is under 5 µM.

`O=C(Cc1c(F)ccc(F)c1F)N/N=C/c1ccccc1OS(=O)(=O)c1ccc(C(F)(F)F)cc1` [Compound 27, 2-((E)-{2-[2-(2,3,6-trifluorophenyl)acetyl]hydrazono}methyl)-phenyl 4-(trifluoromethyl)benzenesulfonate]: the IC50 is under 5 µM. The result for `O=C(Cc1c(F)cccc1F)N/N=C/c1ccccc1OS(=O)(=O)c1ccc(C(F)(F)F)cc1` [Compound 28, 2-((E)-{2-[2-(2,6-difluorophenyl)acetyl]hydrazono}methyl)-phenyl 4-(trifluoromethyl)benzenesulfonate] reads under 5 µM. The result for `O=C(Cc1ccccn1)N/N=C/c1ccccc1OS(=O)(=O)c1ccc(C(F)(F)F)cc1` [Compound 29, 2-{(E)-[2-(2-pyridin-2-ylacetyl)hydrazono]methyl}phenyl 4-(trifluoromethyl)benzenesulfonate] reads under 5 µM. `O=C(CCc1cccnc1)N/N=C/c1ccccc1OS(=O)(=O)c1ccc(C(F)(F)F)cc1` [Compound 30, 2-{(E)-[2-(3-pyridin-3-ylpropanoyl)hydrazono]methyl}phenyl 4-(trifluoromethyl)benzenesulfonate]: the IC50 is under 5 µM. Then `O=C(Cc1cc(F)ccc1F)N/N=C/c1ccccc1OS(=O)(=O)c1ccc(C(F)(F)F)cc1` [Compound 31, 2-((E)-{2-[2-(2,5-difluorophenyl)acetyl]hydrazono}methyl)-phenyl 4-(trifluoromethyl)benzenesulfonate], with under 5 µM; and `O=C(Cc1cc(C(F)(F)F)ccc1C(F)(F)F)N/N=C/c1ccccc1OS(=O)(=O)c1ccc(C(F)(F)F)cc1` [Compound 32, 2-[(E)-(2-{2-[2,5-bis(trifluoromethyl)phenyl]acetyl}hydrazono)-methyl]phenyl 4-(trifluoromethyl)benzenesulfonate], with under 5 µM; and `O=C(Cc1c(F)cccc1C(F)(F)F)N/N=C/c1ccccc1OS(=O)(=O)c1ccc(C(F)(F)F)cc1` [Compound 33, 2-[(E)-(2-{2-[2-fluoro-6-(trifluoromethyl)phenyl]acetyl}hydrazono)-methyl]phenyl 4-(trifluoromethyl)benzenesulfonate], with under 5 µM.

Regarding `O=C(Cc1ccc(C(F)(F)F)cc1)N/N=C/c1ccccc1OS(=O)(=O)c1ccc(C(F)(F)F)cc1` [Compound 34, 2-[(E)-(2-{2-[4-(trifluoromethyl)phenyl]acetyl}hydrazono)-methyl]phenyl 4-(trifluoromethyl)benzenesulfonate], the half-maximal inhibitory concentration (IC50) was under 5 µM.

With `O=C(Cc1cccc(C(F)(F)F)c1)N/N=C/c1ccccc1OS(=O)(=O)c1ccc(C(F)(F)F)cc1` [Compound 35, 2-[(E)-(2-{2-[3-(trifluoromethyl)phenyl]acetyl}hydrazono)-methyl]phenyl 4-(trifluoromethyl)benzenesulfonate], the IC50 was under 5 µM. Then `COc1ccccc1CC(=O)N/N=C/c1ccccc1OS(=O)(=O)c1ccc(C(F)(F)F)cc1` [Compound 36, 2-((E)-{2-[2-(2-methoxyphenyl)acetyl]hydrazono}methyl)-phenyl 4-(trifluoromethyl)benzenesulfonate], with 5 to 50 µM; and `COc1ccc(OC)c(CC(=O)N/N=C/c2ccccc2OS(=O)(=O)c2ccc(C(F)(F)F)cc2)c1` [Compound 37, 2-((E)-{2-[2-(2,5-dimethoxyphenyl)acetyl]hydrazono}methyl)-phenyl 4-(trifluoromethyl)benzenesulfonate], with under 5 µM; and `O=C(Cc1ccc(Cl)c(Cl)c1)N/N=C/c1ccccc1OS(=O)(=O)c1ccc(C(F)(F)F)cc1` [Compound 38, 2-((E)-{2-[2-(3,4-dichlorophenyl)acetyl]hydrazono}methyl)-phenyl 4-(trifluoromethyl)benzenesulfonate], with under 5 µM. The result for `O=C(Cc1cc(C(F)(F)F)cc(C(F)(F)F)c1)N/N=C/c1ccccc1OS(=O)(=O)c1ccc(C(F)(F)F)cc1` [Compound 39, 2-[(E)-(2-{2-[3,5-bis(trifluoromethyl)phenyl]acetyl}hydrazono)-methyl]phenyl 4-(trifluoromethyl)benzenesulfonate] reads under 5 µM; that for `O=C(Cc1ccccc1Br)N/N=C/c1ccccc1OS(=O)(=O)c1ccc(C(F)(F)F)cc1` [Compound 40, 2-((E)-{2-[2-(2-bromophenyl)acetyl]hydrazono}methyl)-phenyl 4-(trifluoromethyl)benzenesulfonate], under 5 µM.

As to `O=C(Cc1ccccc1F)N/N=C/c1ccccc1OS(=O)(=O)c1ccc(C(F)(F)F)cc1` [Compound 41, 2-((E)-{2-[2-(2-fluorophenyl)acetyl]hydrazono}methyl)-phenyl 4-(trifluoromethyl)benzenesulfonate], the IC50 was under 5 µM. The result for `Cc1ccccc1CC(=O)N/N=C/c1ccccc1OS(=O)(=O)c1ccc(C(F)(F)F)cc1` [Compound 42, 2-((E)-{-[2-(2-methylphenyl)acetyl]hydrazono}methyl)-phenyl 4-(trifluoromethyl)benzenesulfonate] reads under 5 µM; that for `O=C(Cc1ccc2c(c1)OCO2)N/N=C/c1ccccc1OS(=O)(=O)c1ccc(C(F)(F)F)cc1` [Compound 43, 2-((E)-{2-[2-(1,3-benzodioxol-5-yl)acetyl]hydrazono}methyl)phenyl 4-(trifluoromethyl)benzenesulfonate], under 5 µM; that for `COc1ccc(CC(=O)N/N=C/c2ccccc2OS(=O)(=O)c2ccc(C(F)(F)F)cc2)cc1` [Compound 44, 2-((E)-{2-[2-(4-methoxyphenyl)acetyl]hydrazono}methyl)-phenyl 4-(trifluoromethyl)benzenesulfonate], under 5 µM. The result for `O=C(CC1CCCCC1)N/N=C/c1ccccc1OS(=O)(=O)c1ccc(C(F)(F)F)cc1` [Compound 45, 2-{(E)-[2-(2-cyclohexylacetyl)hydrazono]methyl}phenyl4-(trifluoromethyl)benzenesulfonate] reads under 5 µM; that for `O=C(CCCc1ccccc1)N/N=C/c1ccccc1OS(=O)(=O)c1ccc(C(F)(F)F)cc1` [Compound 46, 2-{(E)-[2-(4-phenylbutanoyl)hydrazono]methyl}phenyl4-(trifluoromethyl)benzenesulfonate], 5 to 50 µM. Then `O=C(CCCCc1ccccc1)N/N=C/c1ccccc1OS(=O)(=O)c1ccc(C(F)(F)F)cc1` [Compound 47, 2-{(E)-[2-(5-phenylpentanoyl)hydrazono]methyl}phenyl4-(trifluoromethyl)benzenesulfonate], with 5 to 50 µM; and `O=C(Cc1cccc(F)c1)N/N=C/c1ccccc1OS(=O)(=O)c1ccc(C(F)(F)F)cc1` [Compound 48, 2-((E)-{2-[2-(3-fluorophenyl)acetyl]hydrazono}methyl)-phenyl 4-(trifluoromethyl)benzenesulfonate], with under 5 µM. As to `COc1ccc2[nH]cc(CC(=O)N/N=C/c3ccccc3OS(=O)(=O)c3ccc(C(F)(F)F)cc3)c2c1` [Compound 49, 2-((E)-{2-[2-(5-methoxy-1H-indol-3-yl)acetyl]hydrazono}methyl)phenyl 4-(trifluoromethyl)benzenesulfonate], the half-inhibitory concentration (IC50) lay in the range of 5 to 50 µM. As for `COc1cc(CC(=O)N/N=C/c2ccccc2OS(=O)(=O)c2ccc(C(F)(F)F)cc2)cc(OC)c1` [Compound 50, 2-((E)-{2-[2-(3,5-dimethoxyphenyl)acetyl]hydrazono}methyl)-phenyl 4-(trifluoromethyl)benzenesulfonate], the half-maximal inhibitory concentration (IC50) was under 5 µM.

The values are drawn from patent publication US7026339B2, “Inhibitors of HCV NS5B polymerase” (priority 2003, dated 2006).
